Reference: PMC9965906, “Discovery and Development Strategies for SARS-CoV-2 NSP3 Macrodomain Inhibitors” (Pathogens, 2023)
Several values for one entry are separate records, joined by “and”; a condition that tells them apart may be missing. Identical values can stand only once. Like-named read-outs stand apart in the source and are kept apart here.

Legend:
[1] = tested on: MacroD1; details: MacroD1, AlphaScreen-based assay format; cited from earlier work
[2] = biological target: NSP3 Mac1; details: recognition by NSP3 Mac1; cited from earlier work
[3] = tested on: NSP3 Mac1; design: method as in PMID 35598780; details: similar set-up using the peptide, AlphaScreen; cited from earlier work
[4] = biological target: SARS-CoV-2 NSP3 Mac1 (Severe acute respiratory syndrome coronavirus 2, UniProt P0DTD1); assay: biochemical; format: binding; details: for inhibition at 125 µM: read-out: Inhibition at top concentration of 125 µM (%)
[5] = MIDAS hit compounds and analogues
[6] = MIDAS hit compounds and analogues, top concentration 125 µM, 8-point 1:1 dilution, duplicate
[7] = MIDAS hit compounds and analogues, top concentration 125 µM, 8-point 1:1 dilution, duplicate, read-out: IC50
[8] = FDA-approved compound library primary screen, 50 µM, single shot
[9] = BioAscent virtual screening hit compounds, 25 µM, duplicate

For `C[CH2][Hg][S]c1ccccc1C(=O)[O-].[Na+]` [Thimerosal, reference compound], the IC50 [1] is listed as 5.2 µM.
For `Nc1ncnc2c1ncn2[C@@H]1O[C@H](COP(=O)(O)OP(=O)(O)OC[C@H]2OC(O)[C@H](O)[C@@H]2O)[C@@H](O)[C@H]1O` (some centres unmarked) [ADP-ribose], the Kd [2] is listed as 13 µM and the IC50 [3] is listed as 1.5 µM.
With `COc1ccc(-c2cc(C(=O)Nc3cccc(OCC(N)=O)c3)c3ccccc3n2)cc1` [IAL-MD0034, COC=1C=CC(=CC1)C=2C=C(C(=O)NC=3C=CC=C(OCC(=O)N)C3)C=4C=CC=CC4N2] the inhibition at 125 µM [4, 5] was 8.9% and the “IC50 in µM” value [4, 6] was “Not measurable”.
With `CCn1ncc2c(C(=O)Nc3ccc(C(N)=O)cc3)cc(-c3cccs3)nc21` [IAL-MD0097, CCN1N=CC=2C(=CC(=NC12)C3=CC=CS3)C(=O)NC=4C=CC(=CC4)C(=O)N] the inhibition at 125 µM [4, 5] was 7.7% and the “IC50 in µM” value [4, 6] was “Not measurable”.
With `CONC(=O)c1cc(-c2ccc(OC)cc2)nc2ccccc12` [IAL-MD0024, CONC(=O)C=1C=C(N=C2C=CC=CC12)C=3C=CC(OC)=CC3] the inhibition at 125 µM [4, 5] was 60.3% and the IC50 [4, 7] was 68 µM.
With `C[C@H]1[C@H](NC(=O)/C(=N\OC(C)(C)C(=O)O)c2csc(N)n2)C(=O)N1S(=O)(=O)O` [Aztreonam, reference compound] the “NSP3 Mac1 inhibition at 50 µM (%)” value [4, 8] was 43%, the inhibition at 50 µM [4, 8] was 42.8% and the Hill slope ([4]; FDA-approved hit compounds, confirmatory HTRF assays) was 1.05. For the same compound, the IC50 ([4]; IC50) was 29.3 µM and 29 µM.
For `Nc1ccc(S(=O)(=O)[O-])cc1.Nc1ccc(S(=O)(=O)[O-])cc1.O.O.O.O.[Zn+2]` [Sulfanilate zinc, reference compound], the “NSP3 Mac1 inhibition at 50 µM (%)” value [4, 8] was 44.2%.
In the case of `Cc1ccc(Cn2ncc3c(C(=O)N4CCNC(=O)C4)cc(C)nc32)cc1` [IAL-MD0124, CC=1C=CC(CN2N=CC=3C(=CC(C)=NC23)C(=O)N4CCNC(=O)C4)=CC1], the “Inhibition at top concentration of 125 µM (%)” value (shortened to “Inhibition … of 125 µM (%)”) [4, 5] is reported as “Not measurable” and the “IC50 in µM” value [4, 6] is reported as “Not measurable”.
With `COCCN(CC(N)=O)C(=O)c1cc(-c2cccs2)nc2c1c(C)nn2C` [IAL-MD0116, COCCN(CC(=O)N)C(=O)C=1C=C(N=C2N(C)N=C(C)C12)C3=CC=CS3] the inhibition at 125 µM [4, 5] was 55.8% and the “IC50 in µM” value [4, 6] was “Not measurable”.
For `CC1CN(C(=O)c2cc(-c3cccs3)nc3c2cnn3C(C)C)C(C)(C)CO1` (centres unmarked) [IAL-MD0087, CC(C)N1N=CC=2C(=CC(=NC12)C3=CC=CS3)C(=O)N4CC(C)OCC4(C)C], the inhibition at 125 µM [4, 5] was 22.3% and the “IC50 in µM” value [4, 6] was “Not measurable”.
For `COc1cccc(NC(=O)c2cc(-c3cccs3)nc3c2cnn3C(C)C)c1` [IAL-MD0033, COC=1C=CC=C(NC(=O)C=2C=C(N=C3N(N=CC23)C(C)C)C4=CC=CS4)C1], the inhibition at 125 µM [4, 5] was 12.1% and the “IC50 in µM” value [4, 6] was “Not measurable”.
In the case of `CC(C)n1ncc2c(C(=O)Nc3ccncc3)cc(-c3cccs3)nc21` [IAL-MD0055, CC(C)N1N=CC=2C(=CC(=NC12)C3=CC=CS3)C(=O)NC=4C=CN=CC4], the inhibition at 125 µM [4, 5] is reported as 19.4% and the “IC50 in µM” value [4, 6] is reported as “Not measurable”.
With `COc1ccc(-c2cc(C(=O)Nc3cccc(S(=O)(=O)N(C)C)c3)c3ccccc3n2)cc1` [IAL-MD0101, COC=1C=CC(=CC1)C=2C=C(C(=O)NC=3C=CC=C(C3)S(=O)(=O)N(C)C)C=4C=CC=CC4N2] the inhibition at 125 µM [4, 5] was 25.2% and the “IC50 in µM” value [4, 6] was “Not measurable”.
Compound `CCN1C(=O)c2cccc3c(S(=O)(=O)O)ccc1c23` [BCC0032304, CCN1C(=O)c2cccc3c(S(=O)(=O)O)ccc1c23] has an inhibition at 25 µM [4, 9] of 36.4%.
With “Chlorophyllide Cu complex Na salt [reference compound]” the “NSP3 Mac1 inhibition at 50 µM (%)” value [4, 8] was 106.7% and the “NSP3 Mac1 inhibition at 50 µM (%)” value ([4]; FDA-approved compound library primary screen, 50 µM, single shot, listed as chlorophyllide–copper complex) was 106%.
For `CCC(C)NC(=O)c1cc(-c2ccc(OC)cc2)nc2ccccc12` (centres unmarked) [IAL-MD0035, CCC(C)NC(=O)C=1C=C(N=C2C=CC=CC12)C=3C=CC(OC)=CC3], the inhibition at 125 µM [4, 5] was 6.8% and the “IC50 in µM” value [4, 6] was “Not measurable”.
In the case of `COCCNC(=O)c1ccc(-c2ccnc3c2ccn3C)o1` [Compound 1, COCCNC(=O)c1ccc(o1)-c1ccnc2n(ccc12)C], the inhibition at 25 µM ([4]; MIDAS compound library primary screen, 25 µM) is reported as 73% and the “NSP3 Mac1 inhibition at 25 µM (%)” value ([4]; MIDAS compound library primary screen, 25 µM, listed as ARUK4007189-001-001, 25 µM) is reported as 73.1%.
With `CCn1ncc2c(C(=O)NC(C)c3ccncc3)cc(-c3cccs3)nc21` (centres unmarked) [IAL-MD0120, CCN1N=CC=2C(=CC(=NC12)C3=CC=CS3)C(=O)NC(C)C=4C=CN=CC4] the inhibition at 125 µM [4, 5] was 8.9% and the “IC50 in µM” value [4, 6] was “Not measurable”.
In the case of `O=c1c(O)c(-c2cccs2)oc2ccccc12` [BCC0111915, O=c1c(O)c(-c2cccs2)oc2ccccc12], the inhibition at 25 µM [4, 9] is reported as 62.9%.
For `Cn1ccc2c(-c3ccc(C(=O)N4CCOCC4)o3)ccnc21` [IAL-MD0131, O=C(C1=CC=C(C2=C3C(N(C)C=C3)=NC=C2)O1)N4CCOCC4], the “Inhibition … of 125 µM (%)” value [4, 5] was “Not measurable due to compound precipitation” and the IC50 [4, 7] was 4.9 µM.
`CN(C)S(=O)(=O)c1ccc2nc(C(=O)O)n(O)c2c1` [BCC0019152, CN(C)S(=O)(=O)c1ccc2nc(C(=O)O)n(O)c2c1] showed an inhibition at 25 µM [4, 9] of 32.7%.
With `CCn1ncc2c(C(=O)Nc3cccc(NC(C)=O)c3)cc(-c3ccccc3)nc21` [IAL-MD0025, CCN1N=CC=2C(=CC(=NC12)C=3C=CC=CC3)C(=O)NC=4C=CC=C(NC(=O)C)C4] the “Inhibition … of 125 µM (%)” value [4, 5] was “Not measurable” and the “IC50 in µM” value [4, 6] was “Not measurable”.
In the case of `CCn1ncc2c(C(=O)N3CCCC(C)C3)cc(-c3ccccc3)nc21` (centres unmarked) [IAL-MD0096, CCN1N=CC=2C(=CC(=NC12)C=3C=CC=CC3)C(=O)N4CCCC(C)C4], the inhibition at 125 µM [4, 5] is reported as 3.9% and the “IC50 in µM” value [4, 6] is reported as “Not measurable”.
In the case of `CCNC(=O)c1ccc(-c2ccnc3c2ccn3C)o1` [IAL-MD0147, O=C(NCC)C1=CC=C(C2=C3C(N(C)C=C3)=NC=C2)O1], the “Inhibition … of 125 µM (%)” value [4, 5] is reported as “Not measurable due to compound precipitation” and the IC50 [4, 7] is reported as 6.8 µM.
In the case of `COc1ccc(-c2cc(C(=O)NCC(F)(F)F)c3ccccc3n2)cc1` [IAL-MD0099, COC=1C=CC(=CC1)C=2C=C(C(=O)NCC(F)(F)F)C=3C=CC=CC3N2], the inhibition at 125 µM [4, 5] is reported as 22.2% and the “IC50 in µM” value [4, 6] is reported as “Not measurable”.
With `Cn1ccc2c(-c3cncc(C(=O)N4CCCCC4)n3)ccnc21` [IAL-MD0137, O=C(C1=CN=CC(C2=C3C(N(C)C=C3)=NC=C2)=N1)N4CCCCC4] the inhibition at 125 µM [4, 5] was 25.8% and the “IC50 in µM” value [4, 6] was “Not measurable”.
For `CCn1ncc2c(C(=O)Nc3ncc(C)s3)cc(-c3cccs3)nc21` [IAL-MD0026, CCN1N=CC=2C(=CC(=NC12)C3=CC=CS3)C(=O)NC4=NC=C(C)S4], the inhibition at 125 µM [4, 5] was 11.1% and the “IC50 in µM” value [4, 6] was “Not measurable”.
In the case of `CC(C)n1ncc2c(C(=O)N3CC(=O)Nc4ccccc43)cc(-c3cccs3)nc21` [IAL-MD0049, CC(C)N1N=CC=2C(=CC(=NC12)C3=CC=CS3)C(=O)N4CC(=O)NC=5C=CC=CC45], the inhibition at 125 µM [4, 5] is reported as 14.3% and the “IC50 in µM” value [4, 6] is reported as “Not measurable”.
